Like-named read-outs stand apart in the source and are kept apart here.
What was measured:
[1] = test system: ChAT protein; experiment: ChAT protein in iPSC-derived motor neurons (western blot); format: cell-based, human; conditions: iPSC-derived motor neurons (GM24468), 3 days
Method: GM03813 fibroblasts and GM24468-derived MNs were seeded at 1.5 × 10^4 and 4 × 10^4 cells/well in 96-well plates and were treated with TEC-1 or SMN-C3 for 72 h at the concentration of 0.01, 0.03, 0.1, 0.3, 1, or 3 µM. After 72 h exposure of compound, GM24468 derived MNs and GM03813 fibroblasts were washed once with D-PBS (-), lysed with RIPA buffer (Wako) containing cOmplete (Sigma-Aldrich) and PhosSTOP (Sigma-Aldrich). The lysates were spun at 15,000 rpm for 15 min at 4 °C, and the supernatants were collected. The protein concentration was quantified with BCA kit (Wako). The lysates, adjusted to have the same protein amount, were mixed with NuPAGE LDS sample buffer containing DTT and heated at 95 °C for 5 min. Except for HTT detection, each sample (2 µg total protein/lane) was loaded Perfect NT Gel 7.5–15% gel (DRC, Japan) and run at 150 V for 60–70 min with Tris/glycine/SDS running buffer (BIO-RAD, USA). The proteins were transferred from the gel to Immobilon-P PVDF Membrane (Millipore, USA) with a transfer solution comprising 10% methanol and 1 × Novex Tris-glycine transfer buffer at 25 V for 180–240 min using Criterion blotter (BIO-RAD). […] After washing with TBS-T four times, chemiluminescence signals were detected by Immunostar Zeta (Wako) and LAS-4000 (GE healthcare).

[2] = biological target: T1, human acetylcholinesterase (Homo sapiens, UniProt P22303); experiment: Eurofins selectivity panel: acetylcholinesterase; format: biochemical
T1 construct: purchased Eurofins Inc

[3] = test system: SMN2 splicing; experiment: qPCR of SMN transcripts in GM03813 cells exposed to TEC-1 and nusinersen; format: cell-based, human; conditions: GM03813, 24 h
Method: Transient transfection of GM03813 fibroblasts with nusinersen (final concentration 100 nM) was performed using Lipofectamine 2000. Cells were seeded 6 h prior to transfection at a density of 5 × 10^3 cells/well in 96-well plate. Transfection was performed according to manufacturer’s instructions. Cells were co-incubated either 0.1% DMSO or with TEC-1 at the concentration of 0.03, 0.1, 0.3, 1, and 3 µM for 24 h.

[4] = pharmacokinetic study in neonatal/juvenile FVB mice, intraperitoneal; format: in vivo; conditions: for Kp / Cmax / MRT / Tmax: male, mouse, ip; for Kp: brain/plasma, read-out: Kp (AUC0–120h ratio)
Method: TEC-1 was intraperitoneally administered at doses of 0.2, 0.6, and 2 mg/kg (suspended in saline/0.9% NaCl solution) to male FVB mice (10 days old, 3 mice per a time point). After administration, brain samples and blood samples with heparinized capillary tubes from heart were collected. Blood samples were centrifuged to obtain the plasma fraction. Brain samples were homogenized in 20% (w/v) saline. The samples were deproteinized with acetonitrile followed by centrifugation and the supernatants were analyzed by LC/MS/MS to obtain TEC-1 concentrations of the plasma and brain.

[5] = brain, 0.2 mg/kg i.p. single, juvenile FVB mice
[6] = brain, 0.6 mg/kg i.p. single, juvenile FVB mice
[7] = brain, 2 mg/kg i.p. single, juvenile FVB mice
[8] = plasma, 0.2 mg/kg i.p. single, juvenile FVB mice
[9] = plasma, 0.6 mg/kg i.p. single, juvenile FVB mice
[10] = plasma, 2 mg/kg i.p. single, juvenile FVB mice

T1 sequence (P22303 32-614): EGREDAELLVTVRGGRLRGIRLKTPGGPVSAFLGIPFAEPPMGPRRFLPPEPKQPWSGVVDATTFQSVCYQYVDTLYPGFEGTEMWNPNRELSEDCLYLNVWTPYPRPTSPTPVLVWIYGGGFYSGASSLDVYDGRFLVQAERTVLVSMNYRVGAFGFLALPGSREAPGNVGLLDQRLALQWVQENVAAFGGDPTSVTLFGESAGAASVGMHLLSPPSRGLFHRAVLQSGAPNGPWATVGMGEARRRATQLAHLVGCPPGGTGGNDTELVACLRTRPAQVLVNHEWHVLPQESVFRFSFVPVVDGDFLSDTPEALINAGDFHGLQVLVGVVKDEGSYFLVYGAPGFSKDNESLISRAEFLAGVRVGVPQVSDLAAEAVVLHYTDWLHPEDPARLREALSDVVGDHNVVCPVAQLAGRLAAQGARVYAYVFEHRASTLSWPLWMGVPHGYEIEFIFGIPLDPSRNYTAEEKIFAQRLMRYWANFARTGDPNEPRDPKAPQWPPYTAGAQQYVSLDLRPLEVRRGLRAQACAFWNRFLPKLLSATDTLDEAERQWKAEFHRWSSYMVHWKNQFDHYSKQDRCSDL

With `Cc1cn2nc(-c3nc4ccc(N5CCN(C)CC5)cc4c(=O)[nH]3)cc2c(C)n1` [TEC-1, 2-(4,6-dimethylpyrazolo[1,5-a]pyrazin-2-yl)-6-(4-methylpiperazin-1-yl)quinazolin-4(3H)-one] the ChAT protein level [1] was “increase the levels of choline acetyltransferase (ChAT)”, the IC50 [2] was 1.19 µM and the “effect on the activity of nusinersen” value ([3]; TEC-1 at 1 and 3 µM with nusinersen 100 nM) was “significantly enhanced the effects of nusinersen”. The “effect on the activity of nusinersen” value ([3]; low concentrations of TEC-1 with nusinersen 100 nM) was “did not inhibit the effects of nusinersen”, the “AUC0–24 h” value [4, 5] was 69.7 ng･h/g and the “AUC0–120 h” value [4, 5] was 87.7 ng･h/g. For the same compound, the “AUC0–24 h” value [4, 6] was 600.3 ng･h/g, the “AUC0–120 h” value [4, 6] was 716.7 ng･h/g and the “AUC0–24 h” value [4, 7] was 3547.9 ng･h/g. For the same compound, the “AUC0–120 h” value [4, 7] was 8261.5 ng･h/g, the Kp ([4]; 0.2 mg/kg i.p. single, juvenile FVB mice) was 5.8 and the Kp ([4]; 0.6 mg/kg i.p. single, juvenile FVB mice) was 4.8. It also gave a Kp ([4]; 2 mg/kg i.p. single, juvenile FVB mice) of 4.5, a Cmax [4, 5] of 10.5 ng/g and an MRT [4, 5] of 11.2 h. For the same compound, the Tmax [4, 5] was 0.5 h, the Cmax [4, 6] was 63.2 ng/g and the MRT [4, 6] was 11.8 h. The Tmax [4, 6] was 1 h, the Cmax [4, 7] was 219 ng/g and the MRT [4, 7] was 35.8 h. The Tmax [4, 7] was 1 h, the Cmax ([4]; plasma, 0.2 mg/kg i.p. single, juvenile (10-day-old) FVB mice, n = 3, pool) was 0.0022 µg/mL and the MRT [4, 8] was 7.21 h. The Tmax [4, 8] was 0.5 h, the Cmax [4, 9] was 0.0113 µg/mL and the MRT [4, 9] was 10.7 h. For the same compound, the Tmax [4, 9] was 0.5 h, the Cmax [4, 10] was 0.042 µg/mL and the MRT [4, 10] was 40.4 h. For the same compound, the Tmax [4, 10] was 3 h, the “AUC0–24 h” value [4, 8] was 15.2 ng･h/mL and the “AUC0–120 h” value [4, 8] was 15.2 ng･h/mL. For the same compound, the “AUC0–24 h” value [4, 9] was 129.9 ng･h/mL, the “AUC0–120 h” value [4, 9] was 149.1 ng･h/mL and the “AUC0–24 h” value [4, 10] was 718.6 ng･h/mL. The “AUC0–120 h” value [4, 10] was 1829.8 ng･h/mL.

Reference: paper PMC7562719, “Discovery of a CNS penetrant small molecule SMN2 splicing modulator with improved tolerability for spinal muscular atrophy” (Scientific Reports, 2020)
